Values joined by “and” are separate entries in the source; they are usually repeats but may differ in a detail not shown here. Equal values may be shown once. Toxic doses and inconclusive results are not listed. Rule as the data show it: active = T/C of 150% or more; inactive = T/C below 125%.
Tested on: L1210 leukemia ip in BDF1 mice, survival T/C
Assay: NCI In Vivo Anticancer Drug Screen. Data for tumor model L1210 Leukemia (intraperitoneal) in B6D2F1 (BDF1) mice
Settings: endpoint: mean survival time, higher = longer survival
Procedure, shortened: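 In this screen, tumor-bearing mice given compound are compared to those given vehicle, and their survival values are reported as a treated-to-control quotient.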

[1] = dose: 100.0 mg/kg/injection, schedule: Q01DX009 (ip), vehicle: saline with Tween-80
[2] = dose: 200.0 mg/kg/injection, schedule: Q01DX009 (ip), vehicle: saline with Tween-80
[3] = dose: 400.0 mg/kg/injection, schedule: Q01DX009 (ip), vehicle: saline with Tween-80
[4] = dose: 100.0 mg/kg/injection, schedule: Q04DX003 (ip), vehicle: saline with Tween-80
[5] = dose: 200.0 mg/kg/injection, schedule: Q04DX003 (ip), vehicle: saline with Tween-80
[6] = dose: 400.0 mg/kg/injection, schedule: Q04DX003 (ip), vehicle: saline with Tween-80

Measured: T/C

CCCCCC(O)C(CO)CCCC (stereo not given)
inactive: [1] 100 % of control | [2] 95 % of control | [3] 94 % of control

CCCCCCCCCCCCOCCC(=O)O
inactive: dose: 75.0 mg/kg/injection, schedule: Q01DX001 (ip), vehicle: saline 100 % of control | dose: 150.0 mg/kg/injection, schedule: Q01DX001 (ip), vehicle: saline 94 % of control | dose: 300.0 mg/kg/injection, schedule: Q01DX001 (ip), vehicle: saline 94 % of control

N#Cc1cn(C2OC(CO)C(O)C2O)c2ncn(O)c(=N)c12 (stereo not given)
inactive: dose: 0.19 mg/kg/injection, schedule: Q01DX005 (ip), vehicle: saline 112 % of control | dose: 0.19 mg/kg/injection, schedule: Q01DX009 (ip), vehicle: saline 107 % of control | dose: 0.39 mg/kg/injection, schedule: Q01DX005 (ip), vehicle: saline 96 % of control | dose: 0.39 mg/kg/injection, schedule: Q01DX009 (ip), vehicle: saline 97 % of control | dose: 0.78 mg/kg/injection, schedule: Q01DX005 (ip), vehicle: saline 100 % of control | dose: 0.78 mg/kg/injection, schedule: Q01DX009 (ip), vehicle: saline 100 % of control | dose: 1.56 mg/kg/injection, schedule: Q01DX005 (ip), vehicle: saline 94 % of control

CCOC(=O)C(C1=NC(C)(C)CC(C)O1)C1CCCCC1 (stereo not given)
inactive: dose: 100.0 mg/kg/injection, schedule: Q04DX003 (ip), vehicle: saline sonified 115 % of control | dose: 200.0 mg/kg/injection, schedule: Q04DX003 (ip), vehicle: saline sonified 102 % of control | dose: 400.0 mg/kg/injection, schedule: Q04DX003 (ip), vehicle: saline sonified 108 % of control

Cc1ccc(C)c(NS(C)(=O)=O)c1
inactive: dose: 50.0 mg/kg/injection, schedule: Q01DX001 (ip), vehicle: saline 96 % of control | dose: 100.0 mg/kg/injection, schedule: Q01DX001 (ip), vehicle: saline 91 % of control | dose: 200.0 mg/kg/injection, schedule: Q01DX001 (ip), vehicle: saline 102 % of control | dose: 400.0 mg/kg/injection, schedule: Q01DX001 (ip), vehicle: saline 102 % of control

CCOC(=O)c1ccc(NC(=O)Nc2cccc3c(O)cccc23)cc1
inactive: dose: 50.0 mg/kg/injection, schedule: Q04DX003 (ip), vehicle: saline with Tween-80 102 % of control | dose: 100.0 mg/kg/injection, schedule: Q01DX001 (ip), vehicle: saline with Tween-80 86 % of control | [1] 86 % of control | dose: 100.0 mg/kg/injection, schedule: Q04DX002 (ip), vehicle: saline with Tween-80 97 % of control and 106 % of control | [4] 94 % of control | dose: 200.0 mg/kg/injection, schedule: Q01DX001 (ip), vehicle: saline with Tween-80 86 % of control | [2] 89 % of control | dose: 200.0 mg/kg/injection, schedule: Q04DX002 (ip), vehicle: saline with Tween-80 97 % of control and 91 % of control | [5] 93 % of control and 87 % of control | [3] 89 % of control | dose: 400.0 mg/kg/injection, schedule: Q04DX002 (ip), vehicle: saline with Tween-80 89 % of control and 91 % of control | [6] 97 % of control

CCCCCCCCCC(O)CCCC (stereo not given)
inactive: dose: 25.0 mg/kg/injection, schedule: Q01DX009 (ip), vehicle: saline with Tween-80 108 % of control | dose: 50.0 mg/kg/injection, schedule: Q01DX009 (ip), vehicle: saline with Tween-80 97 % of control | [1] 94 % of control and 98 % of control | [4] 98 % of control | [5] 98 % of control | [6] 96 % of control

CC1(C)COC(c2ccc3ccccc3c2)OC1
inactive: dose: 100.0 mg/kg/injection, schedule: Q04DX003 (ip), vehicle: Klucel (hydroxypropylcellulose) (HPC) 96 % of control | dose: 200.0 mg/kg/injection, schedule: Q04DX003 (ip), vehicle: Klucel (hydroxypropylcellulose) (HPC) 101 % of control | dose: 400.0 mg/kg/injection, schedule: Q04DX003 (ip), vehicle: Klucel (hydroxypropylcellulose) (HPC) 100 % of control

CC1=NC2(CCCCC2)C[N+]1(Cc1ccccc1)Cc1ccccc1
inactive: [4] 94 % of control

O=S(=O)(c1ccccc1)N1C=CC=CC=C1
inactive: dose: 25.0 mg/kg/injection, schedule: Q04DX002 (ip), vehicle: Klucel (hydroxypropylcellulose) (HPC) 102 % of control | dose: 50.0 mg/kg/injection, schedule: Q04DX002 (ip), vehicle: Klucel (hydroxypropylcellulose) (HPC) 102 % of control | dose: 100.0 mg/kg/injection, schedule: Q04DX002 (ip), vehicle: Klucel (hydroxypropylcellulose) (HPC) 105 % of control
